Test results published in DBAASP.
In brackets after ≈: the same amount, converted by molar mass. Several values for one entry are separate records, joined by “and”; a condition that tells them apart may be missing. Equal entries are not always repeated.

Columns and labels:
Assay in all cases: ≥ marks a high value that may be exact or a test limit, other limits are often not marked, values filed in µg/mL are converted to µM
[1] = system: Salmonella enterica subsp. enterica serovar Typhimurium C77-31
Escherichia coli UB1005 = system: Escherichia coli UB1005
[2] = system: Staphylococcus aureus ATCC 29213
Staphylococcus aureus = system: Staphylococcus aureus
[3] = system: Salmonella enterica subsp. enterica serovar Choleraesuis CVCC 503
[4] = system: Salmonella enterica subsp. enterica serovar Typhimurium ATCC 14028
[5] = system: Escherichia coli ATCC 25922
[6] = system: Salmonella enterica subsp. enterica serovar Pullorum C79-13
[7] = system: Enterococcus faecalis ATCC 29212
[8] = system: Staphylococcus aureus ATCC 43300
Streptococcus agalactiae = system: Streptococcus agalactiae
[9] = system: Staphylococcus epidermidis ATCC 12228
[10] = system: Lacticaseibacillus rhamnosus 1.0385
[11] = system: Lactiplantibacillus plantarum 8014
[12] = system: Lacticaseibacillus rhamnosus 7469
[13] = system: Lacticaseibacillus rhamnosus 1.0911
[14] = system: Pseudomonas aeruginosa ATCC 27853
[15] = system: Staphylococcus aureus ATCC 25923
Escherichia coli K99 = system: Escherichia coli K99
Escherichia coli K88 = system: Escherichia coli K88
[16] = system: Lacticaseibacillus rhamnosus 1.0936
[17] = system: Staphylococcus aureus ATCC 6538
[18] = system: Micrococcus luteus ATCC 9341
[19] = system: Candida albicans ATCC 36232
[20] = system: Pseudomonas aeruginosa 50
[21] = system: Acinetobacter baumannii 9931
Escherichia coli 780 = system: Escherichia coli 780
[22] = system: Staphylococcus aureus 113
[23] = system: Bacillus subtilis ATCC 23857
[24] = system: Pseudomonas aeruginosa ATCC 9027
[25] = system: Klebsiella pneumoniae ATCC 700603
Staphylococcus aureus 75 = system: Staphylococcus aureus 75
[26] = system: Acinetobacter baumannii ATCC 19606
Escherichia coli MG1655 = system: Escherichia coli MG1655
Bacillus subtilis 168 HT = system: Bacillus subtilis 168 HT

SMILES | MIC [1] | MIC (Escherichia coli UB1005) | MIC [2] | MIC [4] | MIC [5] | MIC [6] | MIC [8] | MIC [9] | MIC [14] | MIC [15] | also measured
CC(C)[C@H](N)C(=O)N[C@@H](CS)C(=O)N[C@@H](CCCN=C(N)N)C(=O)N[C@@H](CCCCN)C(=O)N1CCC[C@H]1C(=O)N[C@H](C(=O)N[C@H](C(=O)N[C@@H](CS)C(=O)N[C@@H](CCCN=C(N)N)C(=O)N[C@@H](CCCCN)C(=O)N1CCC[C@H]1C(=O)N[C@H](C(=O)N[C@H](C(=O)N[C@@H](CS)C(=O)N[C@@H](CCCN=C(N)N)C(=O)N[C@@H](CCCCN)C(=O)N1CCC[C@H]1C(=O)N[C@H](C(N)=O)C(C)C)C(C)C)C(C)C)C(C)C)C(C)C [VCRKPVVCRKPVVCRKPV] | 16 µM (≈ 33.1 µg/mL) | 16 µM (≈ 33.1 µg/mL) | > 64 µM | 8 µM (≈ 16.5 µg/mL) | 8 µM (≈ 16.5 µg/mL) | ≥ 64 µM | > 64 µM | > 64 µM | – | – | MIC (Staphylococcus aureus): > 64 µM; MIC [3]: ≥ 64 µM; MIC [7]: > 64 µM; MIC (Streptococcus agalactiae): ≥ 64 µM
C[C@H](NC(=O)[C@H](C)NC(=O)[C@H](Cc1c[nH]c2ccccc12)NC(=O)[C@H](Cc1c[nH]c2ccccc12)NC(=O)[C@H](Cc1c[nH]c2ccccc12)NC(=O)[C@@H](N)CCCN=C(N)N)C(N)=O [RWWWAA] | ≥ 64 µM | ≥ 64 µM | > 64 µM | > 64 µM | > 64 µM | ≥ 64 µM | > 64 µM | – | > 64 µM | > 64 µM | MIC [10]: ≥ 64 µM; MIC [11]: ≥ 64 µM; MIC [12]: ≥ 64 µM; MIC [13]: ≥ 64 µM; MIC (Escherichia coli K99): ≥ 64 µM; MIC (Escherichia coli K88): ≥ 64 µM; MIC [16]: ≥ 64 µM
CC(C)[C@H](NC(=O)[C@H](CCCCN)NC(=O)[C@H](Cc1ccccc1)NC(=O)[C@@H](NC(=O)[C@@H](NC(=O)[C@@H](N)CCCCN)C(C)C)C(C)C)C(=O)N[C@@H](CCCCN)C(=O)N[C@@H](Cc1ccccc1)C(=O)N[C@@H](CCCCN)C(=O)N[C@@H](CCCCN)C(=O)N[C@@H](CCCCN)C(N)=O [KVVFKVKFKKK] | – | – | – | – | – | – | – | – | – | – | MIC [17]: 2.27 µM (≈ 3.13 µg/mL); MIC [18]: 2.27 µM (≈ 3.13 µg/mL); MIC [19]: 4.53 µM and 2.27 µM and 3.21 µM
CC[C@H](C)[C@H](N)C(=O)N[C@H](C(=O)N[C@@H](CS)C(=O)N[C@@H](CCCN=C(N)N)C(=O)N[C@@H](CCCCN)C(=O)N1CCC[C@H]1C(=O)N[C@H](C(=O)N[C@H](C(=O)N[C@@H](CS)C(=O)N[C@@H](CCCN=C(N)N)C(=O)N[C@@H](CCCCN)C(=O)N1CCC[C@H]1C(=O)N[C@H](C(=O)N[C@H](C(=O)N[C@@H](CS)C(=O)N[C@@H](CCCN=C(N)N)C(=O)N[C@@H](CCCCN)C(=O)N1CCC[C@H]1C(=O)N[C@H](C(=O)N[C@H](C(=O)N[C@@H](CS)C(=O)N[C@@H](CCCN=C(N)N)C(=O)N[C@@H](CCCCN)C(=O)N1CCC[C@H]1C(=O)N[C@H](C(=O)N[C@H](C(N)=O)[C@@H](C)CC)[C@@H](C)CC)[C@@H](C)CC)[C@@H](C)CC)[C@@H](C)CC)[C@@H](C)CC)[C@@H](C)CC)[C@@H](C)CC)[C@@H](C)CC [IICRKPIICRKPIICRKPIICRKPII] | 2 µM (≈ 6.17 µg/mL) | 1 µM (≈ 3.09 µg/mL) | 32 µM and 64 µM | 2 µM (≈ 6.17 µg/mL) | – | 8 µM (≈ 24.7 µg/mL) | 16 µM (≈ 49.4 µg/mL) | 16 µM (≈ 49.4 µg/mL) | – | – | MIC (Staphylococcus aureus): 16 µM (≈ 49.4 µg/mL); MIC [3]: 4 µM (≈ 12.3 µg/mL); MIC [7]: 32 µM (≈ 98.8 µg/mL); MIC (Streptococcus agalactiae): 16 µM (≈ 49.4 µg/mL)
NC(=O)[C@H](Cc1c[nH]c2ccccc12)NC(=O)[C@H](CCCN=C(N)N)NC(=O)[C@H](Cc1c[nH]c2ccccc12)NC(=O)[C@H](Cc1c[nH]c2ccccc12)NC(=O)[C@H](CCCN=C(N)N)NC(=O)[C@H](Cc1c[nH]c2ccccc12)NC(=O)[C@H](Cc1c[nH]c2ccccc12)NC(=O)[C@H](CCCN=C(N)N)NC(=O)[C@H](Cc1c[nH]c2ccccc12)NC(=O)[C@H](Cc1c[nH]c2ccccc12)NC(=O)[C@H](CCCN=C(N)N)NC(=O)[C@H](Cc1c[nH]c2ccccc12)NC(=O)[C@H](Cc1c[nH]c2ccccc12)NC(=O)[C@H](CCCN=C(N)N)NC(=O)[C@@H](N)Cc1c[nH]c2ccccc12 [WRWWRWWRWWRWWRW] | – | – | 8 µM (≈ 21.3 µg/mL) | – | – | – | – | 4 µM (≈ 10.6 µg/mL) | 16 µM (≈ 42.6 µg/mL) | 8 µM and 16 µM | MIC [20]: ≥ 32 µM; MIC [21]: 16 µM (≈ 42.6 µg/mL); MIC (Escherichia coli 780): 16 µM (≈ 42.6 µg/mL); MIC [22]: 4 µM (≈ 10.6 µg/mL); MIC [23]: 4 µM (≈ 10.6 µg/mL); MIC [24]: 16 µM (≈ 42.6 µg/mL); MIC [25]: 16 µM (≈ 42.6 µg/mL); MIC (Staphylococcus aureus 75): 8 µM (≈ 21.3 µg/mL); MIC [26]: 16 µM (≈ 42.6 µg/mL)
C[C@@H]1NC(=O)[C@@H](N)CSSC[C@@H](C(=O)N[C@@H](CCCN=C(N)N)C(=O)N[C@@H](Cc2c[nH]c3ccccc23)C(=O)N[C@@H](Cc2c[nH]c3ccccc23)C(=O)N[C@@H](Cc2c[nH]c3ccccc23)C(=O)N[C@@H](CCCN=C(N)N)C(=O)N[C@@H](CCCN=C(N)N)C(N)=O)NC(=O)[C@H](Cc2ccccc2)NC(=O)[C@H](Cc2ccc(O)cc2)NC(=O)[C@H](CO)NC1=O [CASYFCRWWWRR] | ≥ 32 µM | 8 µM (≈ 13.7 µg/mL) | – | 64 µM (≈ 110 µg/mL) | 8 µM (≈ 13.7 µg/mL) | 8 µM (≈ 13.7 µg/mL) | 4 µM (≈ 6.87 µg/mL) | – | > 64 µM | 4 µM (≈ 6.87 µg/mL) | MIC [10]: ≥ 64 µM; MIC [11]: ≥ 64 µM; MIC [12]: ≥ 64 µM; MIC [13]: ≥ 64 µM; MIC (Escherichia coli K99): 4 µM (≈ 6.87 µg/mL); MIC (Escherichia coli K88): ≥ 32 µM; MIC [16]: ≥ 64 µM
CC(C)[C@H](NC(=O)[C@H](CCC(N)=O)NC(=O)[C@H](CS)NC(=O)[C@H](C)NC(=O)[C@H](CCCCN)NC(=O)[C@H](CCCN=C(N)N)NC(=O)[C@H](CC(N)=O)NC(=O)[C@H](CCCCN)NC(=O)[C@H](CCCCN)NC(=O)[C@H](Cc1c[nH]c2ccccc12)NC(=O)[C@@H](NC(=O)[C@H](CCCCN)NC(=O)CNC(=O)[C@@H](N)CC(N)=O)[C@@H](C)O)C(=O)N[C@@H](CCCCN)C(=O)O [NGKTWKKNRKACQVK] | – | – | – | – | – | – | – | – | – | – | MIC (Escherichia coli MG1655): ≥ 71.5 µM; MIC (Bacillus subtilis 168 HT): ≥ 71.5 µM
